The text below walks through data of patent US7109170B2, “Region of factor IXa protease domain that interacts with factor VIIIa and methods therefor” (Saint Louis University, priority 1999, dated 2006).

Peptide text beside a SMILES is read from it.

This assay addresses T1, factor IXa (Homo sapiens, UniProt P00740).
T1 construct: heavy chain of factor IXa comprised of residues 181–415; light chain of factor IXa comprised of residues 1–145
Put plainly: Factor IX peptide competition assay in the absence of factor VIIIa. In kind it is biochemical. How it is done: Each reaction mixture contained 20 nM of factor IXa, 100 nM of factor X, various concentrations of peptide, 25 μM of phospholipid, and 5 mM CaCl2 in TBS/BSA. The reaction mixtures were incubated for 2.5, 5, 10, 15, and 20 minutes at 37° C. and were stopped with the addition of 1.5 μL of 0.5 M EDTA and placed on ice. Forty μL of each reaction was 5 added to 100 μL of TBS/BSA in a 96 well microtiter plate and S-2222 was added to a final concentration of 100 μM.

For the compound `CC(C)C[C@H](N)C(=O)N[C@H](C(=O)N[C@@H](CC(=O)O)C(=O)N[C@@H](CCCNC(=N)N)C(=O)N[C@@H](C)C(=O)N[C@H](C(=O)O)[C@@H](C)O)C(C)C` [Protein P-4351, LVDRAT] (H-LVDRAT-OH; N-terminus and C-terminus assumed), the “inhibitory effect on factor IXa's ability to activate factor X” value is on record as “no inhibitory effect”.
